{"source": "patent US20260069606A1", "about": "“Oxidative Stress and Diabetes Treatment with Cobinamide” (The Regents of the University of California, priority 2022, published 2026)", "test": "Reaction with superoxide, hypoxanthine-xanthine oxidase-cytochrome c reduction system", "assay_type": "biochemical", "settings": "for Apparent rate constant, reaction with superoxide (O2·^−): second order, hypoxanthine-xanthine oxidase-cytochrome c system, new data of this study", "procedure": "FIGS. 1A-1G. Cobinamide Functions as a Superoxide Dismutase Mimetic. FIGS. 1A-1B. Chemical structures of aquohydroxo-cobinamide (FIG. 1A) and hydroxo-cobalamin (FIG. 1B). FIGS. 1C, 1E. Increasing concentrations of Chi(III) (FIG. 1C) or Chi(II) (FIG. 1E) were incubated in a hypoxanthine-xanthine oxidase-cytochrome c-catalase system for measuring O2·^−, with the change in absorbance at 550 nm (ΔAbs) plotted versus time. A no substrate (no hypoxanthine) control was included. FIGS. 1D, 1F. The calculated rate of change of absorbance at 550 nm in the absence of Chi(III) or Chi(II) (Vo) divided by the calculated rate in their presence (v) is plotted against the Chi(III) (FIG. 1D) or Chi(II) (FIG. 1F) concentration, respectively. The slope of the fitted line was used to calculate the apparent rate constant according to the following equation: kCbi=slope×kcytochrome c×[cytochrome c], where kcytochrome c=1.4×10^6 M^−1 s^−1 and [cytochrome c]=70 μM^70. The data shown are the mean of duplicate samples from one experiment, with similar results found in two additional experiments. Dotted lines show 95% confidence intervals. FIG. 1G. A 20 μM solution of Chi(III) in DMSO was scanned from 280 to 600 nm yielding the spectrum shown as a black line. An equimolar amount of […] (KO2) dissolved in dimethyl sulfoxide (DMSO) was added and the solution was scanned immediately, yielding the grey line. […] The experiment was conducted three times with identical results.\nTable I. Reaction Rates of Cobinamide (Cbi), Cobalamin, Imisopasem, and MnTBAP with Reactive Oxygen and Nitrogen Species. Reactions of the indicated compounds with O2·^−, ONOO^−, and ·NO are all second order reactions with rate constants in units of M^−1 s^−1. The reactions of Cbi(III) and Cbi(II) with H2O2 are third order with rate constant units of M^−2 s^−1. Chi(II) and cobalamin(II) bind nitric oxide, so a Ka is shown in units of M^−1. For the new data presented in this study, rate constants were measured for O2·^− using a hypoxanthine-xanthine oxidase-cytochrome c system, for H2O2 using a H2O2-specific sensor (World Precision Instruments), and for ONOO^− using a stopped-flow instrument. Published rate constants for Cu/Zn and Mn superoxide dismutases (SOD) and catalase are shown for reference.^a,b Letters and numbers in parenthesis refer to footnotes and references, respectively.\nThe reaction of cobinamide with O2·^− was studied in two different systems, generating O2·^− using a hypoxanthine-xanthine oxidase system.\nThe first system contained 100 μM hypoxanthine and 0.1 unit xanthine oxidase in 20 mM sodium phosphate buffer, pH 7.1. The amount of O2·^− was measured by following reduction of ferric-cytochrome c (70 μM) at 550 nm as described previously^65. Catalase was included (32 units per sample), because xanthine oxidase generates both O2·^− and H2O2, and the latter can re-oxidize the ferro-cytochrome c product^34,66. The reaction was followed for 10 min. A no substrate blank lacking hypoxanthine was included.\nIn both systems, the experiments were conducted in the absence and presence of the indicated concentrations of Cbi(III) or Chi(II) 65.\nCatalase was included in the reaction mixture, because the hypoxanthine-xanthine oxidase system also generates H2O2 and the latter can oxidize the ferro-cytochrome c product back to ferric-cytochrome c, thereby interfering with the kinetic measurement^34."}
{"compound": "C/C1=C2/[N-][C@H]([C@H](CC(N)=O)[C@@]2(C)CCC(=O)NC[C@@H](C)O)[C@]2(C)N=C(/C(C)=C3N=C(/C=C4N=C1[C@@H](CCC(N)=O)C\\4(C)C)[C@@H](CCC(N)=O)[C@]\\3(C)CC(N)=O)[C@@H](CCC(N)=O)[C@]2(C)CC(N)=O.[Co+3]", "note": "[cobinamide, aquohydroxo-cobinamide]", "values": [{"measurement": "Apparent rate constants, reaction with O2·^−", "setting": "hypoxanthine-xanthine oxidase-cytochrome c reduction system, catalase included, exponent shared in the sentence", "result": "1.12e+08", "unit": "M⁻¹ s⁻¹"}, {"measurement": "Apparent rate constant, reaction with superoxide (O2·^−)", "setting": "listed as Cbi(III)", "result": "1.1e+08", "unit": "M⁻¹ s⁻¹"}, {"measurement": "Apparent rate constant, reaction with superoxide (O2·^−)", "setting": "listed as Chi(III)", "result": "1.12e+08", "unit": "M⁻¹ s⁻¹"}]}
